Tested on: HIV-1
Experiment: Phenotypic HIV-1 entry inhibitor susceptibility assay (pseudotyped virus, single-round infection, luciferase readout)
Format: cell-based
Conditions: for IC50 for inhibition of entry, resistant HIV relative to sensitive reference virus / maximum percentage of inhibition, resistant viruses relative to sensitive viruses: log-sigmoid inhibition curves; for IC50 for inhibition of entry, resistant HIV relative to sensitive reference virus / completeness of inhibition of entry of resistant virus at high inhibitor concentrations / maximum percentage of inhibition, resistant viruses relative to sensitive viruses: viruses resistant to the inhibitor; for IC50 for inhibition of entry, resistant HIV relative to sensitive reference virus: FIG. 5; for maximum percentage of inhibition, resistant viruses relative to sensitive viruses: FIG. 6, FIG. 8
Method: Susceptibility assays for HIV-1 entry inhibitors were performed using packaging host cells consisting of the human embryonic kidney cell line 293 (Cell Culture Facility, UC San Francisco, SF, Calif.) and target host cells consisting of a human osteosarcoma (HOS) cell line expressing CD4 (HT4) plus CCR5, and CXCR4, or astrocytoma (U-87) cell lines expressing either CD4 and CCR5 or CD4 and CXCR4.
Drug susceptibility testing was performed using pHIVenv and pHIVluc or pHIVlucΔU3. Pseudotyped HIV particles containing envelope proteins encoded by the subject derived segment were produced by transfecting a packaging host cell (HEK 293) with resistance test vector DNA. Virus particles were collected about 48 h after transfection and were used to infect target cells (HT4/CCR5/CXCR4, or U-87/CD4/CXCR4, or U-87/CD4/CCR5) that express the HIV receptor (i.e. CD4) and co-receptors (i.e. CXCR4, CCR5). After infection (~72 h) the target cells are lysed and luciferase activity is measured. HIV must complete one round of replication to successfully infect the target host cell and produce luciferase activity. The amount of luciferase activity detected in the infected cells is used as a direct measure of “infectivity” (FIGS. 1 and 2). […] Drug susceptibility is assessed by comparing the infectivity in the absence of drug to infectivity in the presence of drug.
Packaging host cells were seeded in 10-cm-diameter dishes and were transfected one day after plating with pHIVenv and pHIVluc or pHIVlucΔU3. Transfections were performed using a calcium-phosphate co-precipitation procedure. The cell culture media containing the DNA precipitate was replaced with fresh medium, from one to 24 hours, after transfection. Cell culture media containing viral particles was typically harvested 2 days after transfection and was passed through a […] filter. Before infection, target cells were plated in cell culture media. […] Typically, 3 days after infection target cells were assayed for luciferase activity using the Steady-Glo reagent (Promega) and a luminometer.
However, any such susceptibility assay known by one of skill in the art can in principle be used in the methods for determining phenotypic drug susceptibility. Drug susceptibility can be plotted, for example, as percent inhibition versus log10 drug concentration and defined based on, for example, the IC50 and percent inhibition at the highest drug concentration. […] In this example, the phenotypic drug susceptibility assay of Example 1 was used to determine a log-sigmoid curve showing the resistance of mutant HIV to SCH-C, TNX-355, T-20, and AMD-3100.

## c1cc(CN2CCCNCCNCCCNCC2)ccc1CN1CCCNCCNCCCNCC1 [AMD-3100]
  IC50 for inhibition of entry, resistant HIV relative to sensitive reference virus: increased IC50
  completeness of inhibition of entry of resistant virus at high inhibitor concentrations: can be completely inhibited

## CCO/N=C(\c1ccc(Br)cc1)C1CCN(C2(C)CCN(C(=O)c3c(C)cc[n+]([O-])c3C)CC2)CC1 [SCH-C]
  maximum percentage of inhibition, resistant viruses relative to sensitive viruses: reduced maximum percentage of inhibition

## TNX-355: HIV entry inhibitor (Tanox Inc.), non-competitive
  maximum percentage of inhibition, resistant viruses relative to sensitive viruses: reduced maximum percentage of inhibition

## enfuvirtide
Cells expressing CD4, CCR5 and CXCR4, isogenic viruses with one or two gp41 mutations, FIG. 4B
  susceptibility of viruses with drug resistance mutations in the gp41 envelope protein: reduced susceptibility
  IC50 for inhibition of entry, resistant HIV relative to sensitive reference virus: increased IC50
  completeness of inhibition of entry of resistant virus at high inhibitor concentrations: can be completely inhibited
